According to patent publication US20020091124A1, “2-acyl indole derivatives and their use as antitumor agents” (priority 2000, published 2002):
Like-named read-outs stand apart in the source and are kept apart here.

Assays:
[1] = system: human cervical carcinoma cell line KB/HeLa; test: XTT cytotoxicity test, KB/HeLa; assay type: cell-based
[2] = system: human glioma cell line U373; test: XTT cytotoxicity test, U373; settings: U373 MG, 45 h, read-out: IC50 U373
[3] = system: human glioma cell line A-172; test: XTT cytotoxicity test, A-172; settings: A 172, 45 h, read-out: IC50 A-172
rhabdomyosarcoma SXF 463 = test: Human tumor xenograft SXF 463 in naked mice; assay type: in vivo; settings: SXF 463, oral, 200 mg/kg, 2 weeks
Excerpt: (§1) For the in vivo experiments on naked mice, subcutaneously transplanted tumor fragments of the human melanoma MEXF 989 and/or the rhabdomyosarcoma SXF 463 were used. […]; Monday to Friday). […]. The cell lines included intestinal (2), stomach (1), lung (3), breast (2), melanoma (2), ovary (1), kidney (1) and uterus (1) tumor cell lines. […]. Emphasis is furthermore to be given to the oral bioavailability of the indole compounds according to the invention. […]

RKO p21 cells = test: RKOp21 model, XTT assay; assay type: cell-based; settings: Homo sapiens; Table 2; read-out: RKP p21 induced IC50
Excerpt: The model used for examining the cell cycle-specific action was the RKOp21 cell system (M. Schmidt et al. Oncogene19(20):2423-9, 2000). RKO is a human colon carcinoma line in which the cell cycle inhibitor p21^wafl is expressed induced by the ecdysone expression system and leads to an arrest of the cell cycle specifically in G1 and G2. Nonspecific substances inhibit proliferation independently of whether the RKO cell is arrested in G1 or G2 or not. In contrast, cell cycle-specific substances, such as, for example, tubulin inhibitors, are only cytotoxic if the cells are not arrested and the cell cycle is in progress. […] This underlines the arrest of the cell cycle in […] already found in the FACS analyses, and a cell cycle-specific action of the compounds tested.
The assay is carried out in 96-well plates. […] Comparison of the activity on induced and non-induced cells allows conclusions to be drawn about the mechanism of action (cell cycle specificity) of the therapeutics. Non-induced [sic] cells are sown at a cell count which is about four times higher than that of non-induced cells since, compared to non-induced cells, there is no further division during the assay (2×10^4 cells/well induced, about 0.6×10^4 cells/well not induced). The controls are untreated cells (+/− induction). Induction is carried out using 3 μM of muristerone A. On day 1, the cells are plated (+/− muristerone A) and incubated at 37° C. for 24 h. On day 2, the test substance is added (control DMSO) and incubation at 37° C. is continued for another 48 h, after which a standard XTT assay is carried out.

[4] = Tolerability and oral administration in naked mice; assay type: in vivo
Excerpt: (§2) . The cell lines included intestinal (2), stomach (1), lung (3), breast (2), melanoma (2), ovary (1), kidney (1) and uterus (1) tumor cell lines. […]. Emphasis is furthermore to be given to the oral bioavailability of the indole compounds according to the invention. […]

[5] = system: human glioblastoma cell line U373; test: Cell cycle analysis by FACS; settings: U373, treated 24 h, FIG. 2
[6] = system: 12 permanent human tumor cell lines; test: Propidium iodide-based cytotoxicity assay; assay type: cell-based
Excerpt: as §2

rat glioma cell line C6 = test: XTT cytotoxicity test, C6; settings: 45 h, read-out: IC50 C6
[7] = system: human glioma cell line U118; test: XTT cytotoxicity test, U118; settings: 45 h, read-out: IC50 U118
human melanoma MEXF 989 = test: Human tumor xenograft MEXF 989 in naked mice; assay type: in vivo; settings: MEXF 989, oral, 2 weeks, 5 administrations per week
Excerpt: as §1

bovine brain tubulin = system: T1, bovine brain tubulin; test: Bovine tubulin polymerization assay; assay type: biochemical; settings: inhibition of tubulin polymerization; read-out: Tubulin-hemmung/ IC50
T1 construct: The tubulin used in the assay was isolated from bovine brain using cycles of polymerization and depolymerization
Procedure: In an in vitro test, selected compounds were tested for inhibition of polymerization of bovine brain. In this test, tubulin purified by cycles of polymerization and depolymerization, polymerization being initiated by addition of GTP and heating, is used.
The tubulin used in the assay was isolated from bovine brain using cycles of polymerization and depolymerization. […] The appropriate amount of test substance, dissolved in 100% DMSO, is pipetted to this mixture. 10 μl of purified bovine tubulin (50-60 μg of tubulin per well) are then added. […] 200 μl/well of decolorizing solution (25 mM NaOH, 50% ethanol, 0.05 mM EDTA) are finally added using a pipette. Following a 20 minute incubation at room temperature on a shaker (400 rpm), the absorption of 600 nm [sic] is measured in a photometer. What is calculated is the inhibition in % based on the 100% value of a positive control (which contains no test substance), and/or, if a concentration/activity curve is plotted, the lC50 value.

various glioma lines = test: XTT cytotoxicity test, various glioma lines; assay type: cell-based
Excerpt: The publication by M. Medarde et al. 1998, Eur. J. Med. Chem. Vol. 33, pp. 71-77 describes combretastatin analogs which have antitumor action in a proliferation assay with the tumor cell lines P388 (leukemia, murine), A549 (pulmonary carcinoma, human), HT29 (colon carcinoma, human) and Mel28 (melanoma, human).

[8] = read-out: Zytotoxizität KB/HeLa IC50
[9] = XTT test, 45 h incubation, read-out: IC50 KB/HeLa

| SMILES | melting point [°C] | IC50 [1, 8] | IC50 [2] [nM] | IC50 [3] [nM] | IC50 (RKO p21 cells) | cells in the metaphase of mitotic division (M-phase) [5] | IC50 (rat glioma cell line C6) [nM] | IC50 [7] [nM] | IC50 [1, 9] [nM] | IC50 (bovine brain tubulin) [nM] | further results |
| --- | --- | --- | --- | --- | --- | --- | --- | --- | --- | --- | --- |
| O=C(O)c1ccc(C(=O)c2cc3ccccc3[nH]2)cc1 [Example 107, 4-(1H-2-indolylcarbonyl)-1-benzenecarboxylic acid] | > 220 |  |  |  |  |  |  |  |  |  |  |
| COc1ccc2[nH]c(C(=O)c3ccccc3)cc2c1 [Example D-64131, 5-methoxy-1H-2-indolylphenyl-1-methanone] |  | 24 nM | 22 | 51 | 15 nM | concentration-dependent arrest of the cells in mitosis | 96.5 | 24 |  |  | IC50 ([1]; 45 h, read-out: IC50 KB/HeLa): 24 nM; growth inhibition relative to the control (rhabdomyosarcoma SXF 463): 83%; oral bioavailability ([4]; concluded from oral activity): orally bioavailable; tolerated maximum dose ([4]; intraperitoneal injection, administered weekly): 400 mg/kg; tolerability ([4]; p.o. 100 and 200 mg/kg, Qdx5 for 2 weeks): tolerated very well; IC50 ([6]; 12 human tumor cell lines, read-out: average IC50 for all cell lines examined): 340 nM; IC50 ([6]; lung and stomach tumor cell lines, read-out: IC50): ~4000 nM; IC50 ([6]; melanoma, intestinal and kidney tumor cells, read-out: IC50): 4 nM; growth inhibition (human melanoma MEXF 989; 100 mg/kg/day): 66%; growth inhibition (human melanoma MEXF 989; 200 mg/kg/day): 81% |
| COc1ccc2[nH]c(C(=O)c3ccccc3OC)cc2c1 [Example D-68143, 5-methoxy-1H-2-indolyl(2-methoxyphenyl)-1-methanone] |  |  | 29 | 73 | 28 nM |  | 98 | 23 | 35 | 2120 |  |
| COc1cccc(C(=O)c2cc3cc(OC)ccc3[nH]2)c1 [Example D-68144, 5-methoxy-1H-2-indolyl(3-methoxyphenyl)-1-methanone] |  |  | 5 | 15 | 3.6 nM | concentration-dependent arrest of the cells in mitosis | 9.6 | 8.3 | 6.6 | 2420 | factor more active than compound 4d (various glioma lines; compared with Medarde et al.): 40-60; IC50 (various glioma lines; read-out: inhibitory activity IC50 in various glioma lines): 5 to 15 nM |
| COc1ccc2[nH]c(C(=O)c3cc(OC)c(OC)c(OC)c3)cc2c1 [Example D-68150, 5-methoxy-1H-2-indolyl(3,4,5-trimethoxyphenyl)-1-methanone] |  | 32 nM | 19.7 | 18.5 | 16.8 nM | concentration-dependent arrest of the cells in mitosis | 77 | 19.4 |  | 10000 | IC50 ([1]; 45 h, read-out: IC50 KB/HeLa): 32 nM |
| COc1ccc(C(=O)c2cc3cc(OC)ccc3[nH]2)c(OC)c1 [Example D-68172, 5-methoxy-1H-2-indolyl(2,4-dimethoxyphenyl)-1-methanone] |  |  | 75 | 330 | 136 nM |  | 180 | 119 | 107 | < 10000 |  |
| COc1ccc2[nH]c(C(=O)c3ccc(Cl)c(Cl)c3)cc2c1 [Example D-70026, 5-methoxy-1H-2-indolyl(3,4-dichlorophenyl)-1-methanone] | 190 to 192 | ~0.1 µg/mL |  |  |  |  |  |  |  | 2490 |  |
| COc1cc(OC)cc(C(=O)c2cc3cc(C)ccc3[nH]2)c1 [Example D-70316, 5-methyl-1H-2-indolyl(3,5-dimethoxyphenyl)-1-methanone] | 141 to 142 |  |  |  | 17.9 nM |  |  |  |  | 810 |  |
| COc1ccc2[nH]c(C(=O)c3cccc(F)c3)cc2c1 [Example D-81187] |  |  |  |  | 16.8 nM |  |  |  |  | 390 |  |
| CC(=O)O[C@H]1C(=O)[C@@]2(C)[C@H]([C@H](OC(=O)c3ccccc3)[C@]3(O)C[C@H](OC(=O)[C@H](O)[C@@H](NC(=O)c4ccccc4)c4ccccc4)C(C)=C1C3(C)C)[C@]1(OC(C)=O)CO[C@@H]1C[C@@H]2O [Taxol, reference compound] |  |  |  |  | 0.0078 µg/mL |  |  |  |  |  |  |
